Activity calls are given as the source filed them. The rule behind the calls is not given here.
Tests used:
[1] = target: T1, Protein cereblon/Histone-lysine N-methyltransferase EZH2 (Homo sapiens) (UniProt Q15910+Q96SW2); assay: Protac activity at CRBN E3 ligase/EZH2 in human 22Rv1 cells assessed as inhibition of H3K27me3 at 0.3 uM incubated for 48 hrs by Western blot analysis; assay type: cell-based
[2] = target: T1, Protein cereblon/Histone-lysine N-methyltransferase EZH2 (Homo sapiens); assay: Protac activity at CRBN E3 ligase/EZH2 in human 22Rv1 cells assessed as inhibition of H3K27me3 at 1 uM incubated for 48 hrs by Western blot analysis; assay type: cell-based
[3] = target: T1, Protein cereblon/Histone-lysine N-methyltransferase EZH2 (Homo sapiens); assay: Protac activity at CRBN E3 ligase/EZH2 in human 22Rv1 cells assessed as degradation of EZH2 at 1 uM incubated for 48 hrs by Western blot analysis; assay type: cell-based
[4] = target: T1, Protein cereblon/Histone-lysine N-methyltransferase EZH2 (Homo sapiens); assay: Protac activity at CRBN E3 ligase/EZH2 in human 22Rv1 cells assessed as degradation of EZH2 at 0.3 uM incubated for 48 hrs by Western blot analysis; assay type: cell-based
[5] = target: T1, Protein cereblon/Histone-lysine N-methyltransferase EZH2 (Homo sapiens); assay: Protac activity at CRBN E3 ligase/EZH2 in human 22Rv1 cells assessed as degradation of EZH2 at 3 uM incubated for 48 hrs by Western blot analysis; assay type: cell-based
[6] = target: T1, Protein cereblon/Histone-lysine N-methyltransferase EZH2 (Homo sapiens); assay: Protac activity at CRBN E3 ligase/EZH2 in human 22Rv1 cells assessed as inhibition of H3K27me3 at 3 uM incubated for 48 hrs by Western blot analysis; assay type: cell-based
[7] = test system: SU-DHL-6; assay: Induction of apoptosis in human SU-DHL-6 cells assessed as increase in cleaved PARP level at 1 to 5 uM incubated for 48 hrs by Western blot analysis; assay type: functional, cell-based; details: dose 1-5 µM
[8] = test system: SU-DHL-6; assay: Antiproliferative activity against human SU-DHL-6 cells assessed as reduction in cell viability at 0.01 to 10 uM measured after 5 days by MTS assay; assay type: functional, cell-based; details: dose 0.01-10 µM, time 5.0 day
[9] = target: T2, von Hippel-Lindau disease tumor suppressor/Polycomb protein EED (Homo sapiens) (UniProt O75530+P40337); assay: Protac activity at VHL/EED in human 22Rv1 cells assessed as reduction in EED level at 2 uM incubated for 24 hrs by Western blot analysis; assay type: cell-based
T2 sequence (O75530 2-441 limits assumed): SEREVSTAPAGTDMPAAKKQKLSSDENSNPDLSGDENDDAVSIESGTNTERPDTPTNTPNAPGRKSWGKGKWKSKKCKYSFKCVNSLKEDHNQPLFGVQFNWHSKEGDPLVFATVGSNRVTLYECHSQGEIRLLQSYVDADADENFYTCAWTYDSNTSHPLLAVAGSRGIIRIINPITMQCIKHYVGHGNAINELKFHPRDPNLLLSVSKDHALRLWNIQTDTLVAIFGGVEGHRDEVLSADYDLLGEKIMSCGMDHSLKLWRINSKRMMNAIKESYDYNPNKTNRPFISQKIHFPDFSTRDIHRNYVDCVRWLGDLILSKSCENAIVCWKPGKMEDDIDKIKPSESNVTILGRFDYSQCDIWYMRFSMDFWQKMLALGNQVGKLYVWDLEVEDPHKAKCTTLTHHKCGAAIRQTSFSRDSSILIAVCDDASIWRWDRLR
T2 sequence (P40337 whole entry partner): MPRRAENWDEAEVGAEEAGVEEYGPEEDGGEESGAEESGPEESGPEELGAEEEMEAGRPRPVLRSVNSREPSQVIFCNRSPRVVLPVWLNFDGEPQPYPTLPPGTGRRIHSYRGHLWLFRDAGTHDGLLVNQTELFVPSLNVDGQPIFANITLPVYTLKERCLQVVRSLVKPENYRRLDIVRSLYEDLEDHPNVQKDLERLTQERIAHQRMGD

[10] = test system: SU-DHL-6; assay: Induction of cell cycle arrest in human SU-DHL-6 cells assessed as accumulation of cells at sub G1 phase after 24 hrs by flow cytometry; assay type: functional, cell-based; details: dose 1-5 µM
[11] = target: T3, von Hippel-Lindau disease tumor suppressor/Histone-lysine N-methyltransferase EZH2 (Homo sapiens) (UniProt Q15910+P40337); assay: Protac activity at VHL/EZH2 in human 22Rv1 cells assessed as reduction in EZH2 level at 2 uM preincubated with VH032 for 2 hrs followed by compound addition and measured after 24 hrs by Western blot analysis; assay type: cell-based; details: time 26.0 hrs
T3 sequence (P40337 whole entry, looked up): as the sequence (P40337 whole entry partner) above
T3 sequence (Q15910 whole entry, looked up): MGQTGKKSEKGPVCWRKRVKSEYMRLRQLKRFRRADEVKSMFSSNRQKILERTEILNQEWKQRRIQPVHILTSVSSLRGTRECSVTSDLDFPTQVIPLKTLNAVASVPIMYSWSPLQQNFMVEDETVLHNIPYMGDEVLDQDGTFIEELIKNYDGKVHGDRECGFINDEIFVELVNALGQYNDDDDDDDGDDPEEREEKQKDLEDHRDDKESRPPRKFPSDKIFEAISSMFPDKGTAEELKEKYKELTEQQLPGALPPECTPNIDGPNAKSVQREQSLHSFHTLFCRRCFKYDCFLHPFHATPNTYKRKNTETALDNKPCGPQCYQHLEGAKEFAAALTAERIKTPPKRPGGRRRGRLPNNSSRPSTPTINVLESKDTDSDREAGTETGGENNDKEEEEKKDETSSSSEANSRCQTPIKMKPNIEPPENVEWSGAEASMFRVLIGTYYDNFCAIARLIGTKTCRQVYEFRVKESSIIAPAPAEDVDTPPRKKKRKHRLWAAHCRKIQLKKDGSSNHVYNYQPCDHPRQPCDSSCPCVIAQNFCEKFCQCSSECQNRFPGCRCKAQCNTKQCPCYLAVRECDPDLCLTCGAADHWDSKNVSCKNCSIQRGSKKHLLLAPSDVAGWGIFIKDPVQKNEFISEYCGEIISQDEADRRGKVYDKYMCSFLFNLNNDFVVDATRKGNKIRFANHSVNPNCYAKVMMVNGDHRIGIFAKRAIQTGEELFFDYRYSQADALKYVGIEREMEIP

[12] = target: T3, von Hippel-Lindau disease tumor suppressor/Histone-lysine N-methyltransferase EZH2 (Homo sapiens); assay: Protac activity at VHL/EZH2 in human 22Rv1 cells assessed as reduction in H3K27me3 level after 24 hrs by Western blot analysis; assay type: cell-based; details: dose 1-6 µM
[13] = target: T4, von Hippel-Lindau disease tumor suppressor/Polycomb protein SUZ12 (Homo sapiens) (UniProt Q15022+P40337); assay: Protac activity at VHL/SUZ12 in human SUDHL2 cells assessed as reduction in SUZ12 level at 2 uM incubated for 24 hrs by Western blot analysis; assay type: cell-based
T4 sequence (P40337 whole entry, looked up): as the sequence (P40337 whole entry partner) above
T4 sequence (Q15022 whole entry, looked up): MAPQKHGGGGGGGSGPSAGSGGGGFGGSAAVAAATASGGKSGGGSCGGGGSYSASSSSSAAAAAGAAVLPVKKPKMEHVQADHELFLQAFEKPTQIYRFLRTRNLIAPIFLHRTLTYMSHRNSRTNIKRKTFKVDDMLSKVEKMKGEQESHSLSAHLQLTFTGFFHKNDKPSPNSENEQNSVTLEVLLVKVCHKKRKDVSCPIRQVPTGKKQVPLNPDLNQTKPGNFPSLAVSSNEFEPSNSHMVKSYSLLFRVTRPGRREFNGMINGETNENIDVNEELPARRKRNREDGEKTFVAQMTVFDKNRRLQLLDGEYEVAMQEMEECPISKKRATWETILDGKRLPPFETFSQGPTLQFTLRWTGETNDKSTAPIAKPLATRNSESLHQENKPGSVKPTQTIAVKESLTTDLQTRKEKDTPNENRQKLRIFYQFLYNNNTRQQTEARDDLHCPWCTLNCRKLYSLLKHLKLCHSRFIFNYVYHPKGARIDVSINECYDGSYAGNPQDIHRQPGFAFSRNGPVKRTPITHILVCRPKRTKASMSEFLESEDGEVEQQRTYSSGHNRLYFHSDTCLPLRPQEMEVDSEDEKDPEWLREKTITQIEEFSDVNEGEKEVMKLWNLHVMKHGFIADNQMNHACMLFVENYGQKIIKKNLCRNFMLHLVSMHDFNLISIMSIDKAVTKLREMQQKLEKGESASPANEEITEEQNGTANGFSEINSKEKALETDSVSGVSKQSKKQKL

[14] = test system: SU-DHL-6; assay: Induction of apoptosis in human SU-DHL-6 cells assessed as increase in cleaved capase-3 level at 1 to 5 uM incubated for 48 hrs by Western blot analysis; assay type: functional, cell-based; details: dose 1-5 µM
[15] = target: T2, von Hippel-Lindau disease tumor suppressor/Polycomb protein EED (Homo sapiens); assay: Protac activity at VHL/EED in human SUDHL2 cells assessed as reduction in EED level at 2 uM incubated for 24 hrs by Western blot analysis; assay type: cell-based
[16] = target: T3, von Hippel-Lindau disease tumor suppressor/Histone-lysine N-methyltransferase EZH2 (Homo sapiens); assay: Protac activity at VHL/EZH2 in human 22Rv1 cells assessed as EZH2 protein abundance after 24 hrs by Western blot analysis; assay type: cell-based; details: dose 1-6 µM
[17] = target: Histone-lysine N-methyltransferase EZH2 (Homo sapiens) (UniProt Q15910); assay: Induction of EZH2 degradation in human SUDHL2 cells at 0.1 to 5 uM after 24 hrs by Western blot analysis; assay type: cell-based; details: dose 0.1-5 µM
Chain of Histone-lysine N-methyltransferase EZH2 (Homo sapiens) (Q15910 whole entry, looked up): as the sequence (Q15910 whole entry, looked up) above

[18] = target: T3, von Hippel-Lindau disease tumor suppressor/Histone-lysine N-methyltransferase EZH2 (Homo sapiens); assay: Protac activity at VHL/EZH2 in human 22Rv1 cells assessed as reduction in EZH2 level at 1 uM incubated for 48 hrs by Western blot analysis; assay type: cell-based
[19] = test system: SU-DHL-2; assay: Antiproliferative activity against human SUDHL2 cells assessed as reduction in cell viability at 0.01 to 10 uM measured after 5 days by MTS assay; assay type: functional, cell-based; details: dose 0.01-10 µM, time 5.0 day
[20] = target: T4, von Hippel-Lindau disease tumor suppressor/Polycomb protein SUZ12 (Homo sapiens); assay: Protac activity at VHL/SUZ12 in human 22Rv1 cells assessed as reduction in SUZ12 level at 2 uM incubated for 24 hrs by Western blot analysis; assay type: cell-based
[21] = test system: SU-DHL-6; assay: Induction of apoptosis in human SU-DHL-6 cells at 1 to 5 uM incubated for 48 hrs by Annexin V/propidium iodide staining based flow cytometry; assay type: functional, cell-based; details: dose 1-5 µM
[22] = target: T3, von Hippel-Lindau disease tumor suppressor/Histone-lysine N-methyltransferase EZH2 (Homo sapiens); assay: Protac activity at VHL/EZH2 in human 22Rv1 cells assessed as reduction in H3K27me3 level at 1 uM incubated for 48 hrs by Western blot analysis; assay type: cell-based
[23] = test system: SUD4; assay: Antiproliferative activity against human SU-DHL-4 cells assessed as reduction in cell viability at 0.01 to 10 uM measured after 5 days by MTS assay; assay type: functional, cell-based; details: dose 0.01-10 µM, time 5.0 day
[24] = target: T3, von Hippel-Lindau disease tumor suppressor/Histone-lysine N-methyltransferase EZH2 (Homo sapiens); assay: Protac activity at VHL/EZH2 in human 22Rv1 cells assessed as maximum degradation efficacy at 2 uM by Western blot analysis relative to control; assay type: cell-based
[25] = target: T3, von Hippel-Lindau disease tumor suppressor/Histone-lysine N-methyltransferase EZH2 (Homo sapiens); assay: Protac activity at VHL/EZH2 in human 22Rv1 cells assessed as increase in EZH2 ubiquitination at 2 uM for 12 hrs by immunoprecipitation based Western blot analysis; assay type: cell-based
[26] = target: T3, von Hippel-Lindau disease tumor suppressor/Histone-lysine N-methyltransferase EZH2 (Homo sapiens); assay: Protac activity at VHL/EZH2 in VHL knockdown human 22Rv1 cells assessed as reduction in EZH2 level at 2 uM for 24 hrs by Western blot analysis; assay type: cell-based
[27] = test system: SU-DHL-6; assay: Induction of cell cycle arrest in human SU-DHL-6 cells after 24 hrs by flow cytometry; assay type: functional, cell-based; details: dose 1-5 µM
[28] = target: von Hippel-Lindau disease tumor suppressor/Histone-lysine N-methyltransferase EZH1 (Homo sapiens) (UniProt Q92800+P40337); assay: Protac activity at VHL/EZH1 in human 22Rv1 cells assessed as EZH1 protein abundance at 1 to 6 uM after 24 hrs by Western blot analysis; assay type: cell-based; details: dose 1-6 µM
Chain of von Hippel-Lindau disease tumor suppressor/Histone-lysine N-methyltransferase EZH1 (Homo sapiens) (P40337 whole entry, looked up): as the sequence (P40337 whole entry partner) above
Chain of von Hippel-Lindau disease tumor suppressor/Histone-lysine N-methyltransferase EZH1 (Homo sapiens) (Q92800 whole entry, looked up): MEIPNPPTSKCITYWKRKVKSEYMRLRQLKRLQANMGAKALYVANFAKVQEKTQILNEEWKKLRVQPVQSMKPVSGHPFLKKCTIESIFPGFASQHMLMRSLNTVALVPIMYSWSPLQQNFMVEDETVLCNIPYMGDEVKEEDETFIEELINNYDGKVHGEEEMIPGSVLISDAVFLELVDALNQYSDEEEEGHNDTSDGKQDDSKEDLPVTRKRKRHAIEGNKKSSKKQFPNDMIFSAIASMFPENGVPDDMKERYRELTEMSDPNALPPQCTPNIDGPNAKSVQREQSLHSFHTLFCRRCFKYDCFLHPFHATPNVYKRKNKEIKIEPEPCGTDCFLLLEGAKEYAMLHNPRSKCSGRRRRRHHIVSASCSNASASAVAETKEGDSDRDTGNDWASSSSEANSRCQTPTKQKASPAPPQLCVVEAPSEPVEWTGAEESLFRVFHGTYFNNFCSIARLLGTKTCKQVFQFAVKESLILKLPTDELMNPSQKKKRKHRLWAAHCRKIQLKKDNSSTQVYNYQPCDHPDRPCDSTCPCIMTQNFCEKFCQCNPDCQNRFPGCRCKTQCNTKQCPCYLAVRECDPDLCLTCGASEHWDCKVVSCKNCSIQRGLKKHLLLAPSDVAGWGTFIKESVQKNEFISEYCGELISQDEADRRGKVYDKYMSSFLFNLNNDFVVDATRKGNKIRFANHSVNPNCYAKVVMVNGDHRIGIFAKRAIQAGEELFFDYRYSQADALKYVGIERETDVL

[29] = target: T3, von Hippel-Lindau disease tumor suppressor/Histone-lysine N-methyltransferase EZH2 (Homo sapiens); assay: Protac activity at VHL/EZH2 in human 22Rv1 cells assessed as EZH2 degradation at 2 uM after 2 to 4 hrs by Western blot analysis; assay type: cell-based; details: time 2-4 hrs
[30] = test system: DLBCL; assay: Antitumor activity against patient derived human DLBCL cells assessed as increase in capase-3 activity at 1 to 7 uM incubated for 48 hrs by western blot analysis; assay type: functional, cell-based; details: dose 1-7 µM
[31] = test system: SU-DHL-6; assay: Antitumor activity against human SU-DHL-6 cells xenografted in Balb/c mouse assessed as inhibition of tumor growth at 80 mg/kg, ip administered for 6 times weekly for 3 weeks by Ki67 staining based immunohistochemistry; assay type: functional, organism-based
[32] = Toxicity in nude BALB/c mouse xenografted with SU-DHL-6 cells assessed as weight loss at 80 mg/kg, ip administered for 6 times weekly for 3 weeks; assay type: organism-based; details: in vivo, 504 h
[33] = test system: SU-DHL-6; assay: Antitumor activity against human SU-DHL-6 cells xenografted in nude Balb/c mouse assessed as reduction in H3K27me3 level in tumor tissue at 80 mg/kg, ip administered for 6 times weekly for 3 weeks by Western blot analysis; assay type: functional, organism-based
[34] = test system: DLBCL; assay: Antitumor activity against patient derived human DLBCL cells assessed as EZH2 degradation for 24 hrs by western blot analysis; assay type: functional, cell-based; details: dose 0.1-5 µM
[35] = test system: SU-DHL-6; assay: Antitumor activity against human SU-DHL-6 cells xenografted in nude Balb/c mouse assessed as reduction in EZH2 level in tumor tissue at 80 mg/kg, ip administered for 6 times weekly for 3 weeks by Western blot analysis; assay type: functional, organism-based
[36] = test system: SU-DHL-6; assay: Antitumor activity against human SU-DHL-6 cells xenografted in nude Balb/c mouse assessed as reduction in tumor volume at 42.5 mg/kg, ip administered for 6 times weekly for 3 weeks; assay type: functional, organism-based
[37] = test system: SU-DHL-6; assay: Antitumor activity against human SU-DHL-6 cells xenografted in nude Balb/c mouse assessed as reduction in tumor volume at 80 mg/kg, ip administered for 6 times weekly for 3 weeks; assay type: functional, organism-based
[38] = test system: DLBCL; assay: Antitumor activity against patient derived human DLBCL cells assessed as increase in capase-6 activity at 1 to 7 uM incubated for 48 hrs by western blot analysis; assay type: functional, cell-based; details: dose 1-7 µM
[39] = test system: SU-DHL-6; assay: Antitumor activity against human SU-DHL-6 cells xenografted in Balb/c mouse assessed as […] in tumor tissue at 80 mg/kg, ip administered for 6 times weekly for 3 weeks by Ki67 staining based immunohistochemistry; assay type: functional, organism-based
[40] = test system: DLBCL; assay: Antitumor activity against patient derived human DLBCL cells assessed as reduction in cell viability at 1 to 7 uM incubated for 48 hrs by adenosine triphosphate assay; assay type: functional, cell-based; details: dose 1-7 µM

T1 sequence (Q15910 whole entry, looked up): as the sequence (Q15910 whole entry, looked up) above
T1 sequence (Q96SW2 whole entry, looked up): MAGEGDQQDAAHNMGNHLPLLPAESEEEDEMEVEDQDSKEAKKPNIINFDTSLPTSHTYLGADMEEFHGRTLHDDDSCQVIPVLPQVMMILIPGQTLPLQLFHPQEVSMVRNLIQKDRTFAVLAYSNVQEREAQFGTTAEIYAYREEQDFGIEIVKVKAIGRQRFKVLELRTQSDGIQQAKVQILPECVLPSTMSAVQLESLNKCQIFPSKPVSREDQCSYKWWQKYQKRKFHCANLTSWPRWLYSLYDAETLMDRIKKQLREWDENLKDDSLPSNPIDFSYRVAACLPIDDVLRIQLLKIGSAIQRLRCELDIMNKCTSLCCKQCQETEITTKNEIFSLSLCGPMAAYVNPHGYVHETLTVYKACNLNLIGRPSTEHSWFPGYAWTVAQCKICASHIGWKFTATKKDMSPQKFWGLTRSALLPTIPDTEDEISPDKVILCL

SMILES | Activity [1] | Activity [2] | Activity [3] | Activity [4] | Activity [5] | Activity [6] | Activity [7] | Activity [8] | Activity [10] | Activity [12] | Activity [14] | Activity [16] | Activity [18] | Activity [19] | Activity [21] | Activity [22] | Activity [23] | Activity [25] | Activity [27] | Activity [28] | other results
CCN(c1cc(-c2ccc(C(=O)NCCCCCCCCNC(=O)COc3cccc4c3C(=O)N(C3CCC(=O)NC3=O)C4=O)cc2)cc(C(=O)NCc2c(C)cc(C)[nH]c2=O)c1C)C1CCOCC1 (configuration not stated) | inactive | inactive | inactive | inactive | inactive | Active | – | – | – | – | – | – | – | – | – | – | – | – | – | – | –
CCN(c1cc(-c2ccc(OCCOCCOCC(=O)N[C@H](C(=O)N3C[C@H](O)C[C@H]3C(=O)NCc3ccc(-c4scnc4C)cc3)C(C)(C)C)cc2)cc(C(=O)NCc2c(C)cc(C)[nH]c2=O)c1C)C1CCOCC1 | – | – | – | – | – | – | Active | Active | Dose-Dependent Effect | Dose-Dependent Effect | Active | Dose-Dependent Effect | Active | Active | Dose-Dependent Effect | Active | Active | Active | Dose-Dependent Effect | inactive | Activity [9]: Active; Activity [11]: inactive; Activity [13]: Active; Activity [15]: Active; Activity [17]: Active; Activity [20]: Active; Emax [24]: 80%; Activity [26]: inactive; Activity [29]: Active
CCN(c1cc(-c2ccc(C(=O)NCCOCCNc3cccc4c3C(=O)N(C3CCC(=O)NC3=O)C4=O)cc2)cc(C(=O)NCc2c(C)cc(C)[nH]c2=O)c1C)C1CCOCC1 (configuration not stated) | Active | Active | inactive | inactive | inactive | Active | – | – | – | – | – | – | – | – | – | – | – | – | – | – | –
CCN(c1cc(-c2ccc(C(=O)NCCOCCOCCOCCOCC(=O)N[C@H](C(=O)N3C[C@H](O)C[C@H]3C(=O)NCc3ccc(-c4scnc4C)cc3)C(C)(C)C)cc2)cc(C(=O)NCc2c(C)cc(C)[nH]c2=O)c1C)C1CCOCC1 | – | – | – | – | – | – | – | – | – | – | – | – | inactive | – | – | inactive | – | – | – | – | –
CCN(c1cc(-c2ccc(OCCCOCC(=O)N[C@H](C(=O)N3C[C@H](O)C[C@H]3C(=O)NCc3ccc(-c4scnc4C)cc3)C(C)(C)C)cc2)cc(C(=O)NCc2c(C)cc(C)[nH]c2=O)c1C)C1CCOCC1 | – | – | – | – | – | – | Active | Active | Dose-Dependent Effect | Dose-Dependent Effect | Active | Dose-Dependent Effect | Active | Active | Dose-Dependent Effect | Active | Active | Active | Dose-Dependent Effect | inactive | Activity [30]: Active; Activity [31]: Active; Activity [32]: Non-Toxic; Activity [33]: Active; Activity [34]: Dose-Dependent Effect; Activity [35]: Active; Activity [36]: inactive; Activity [37]: Active; Activity [38]: Active; Activity [39]: Active; Activity [40]: Active
